Reference: US20220033407A1, “N-(pyridin-2-ylsulfonyl)cyclopropanecarboxamide Derivatives and their Use in the Treatment of Disease” (NOVARTIS AG, priority 2018, published 2022)

Tests used:
[1] = molecular target: T1, delF508-CFTR-HRP (Homo sapiens, UniProt P13569, DEL508-508); test: Measurement of delF508-CFTR-HRP surface expression in CFBE41o- cells (HRP luminescence); type: cell-based; conditions: for Emax: CFBE41o-, read-out: DelF508-CFTR-HRP Amax %; for EC50: mean of at least two replicates;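 for DelF508-CFTR-HRP Amax %: percent efficacy relative to a reference CFTR corrector compound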
T1 construct: expressed in transfected cells
Method in brief: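 Stably transfected CFBE41o- cells carrying HRP in the fourth extracellular loop of delF508-CFTR, induced with 500 ng/mL doxycycline for 48 h, then compound-treated 24 h at 37° C (10-point, 3-fold, top 10 μM). Surface HRP detected by luminescent substrate; EC50 from logistic fit, triplicates, normalized to lowest-concentration median.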

[2] = molecular target: T2, delF508-CFTR (Homo sapiens, UniProt P13569, DEL508-508); test: delF508-CFTR functional activity in primary human bronchial epithelial cells (HBECs), Multi-Transepithelial Clamp Circuit (MTECC-24) assay, equivalent short circuit current; type: cell-based; conditions: primary CF HBECs; for MTECC24 CFHBEC-Amax %: relative to reference combination 2 μM 3-(6-(1-(2,2-difluorobenzo[d][1,3]dioxol-5-yl)cyclopropane-1-carboxamido)-3-methylpyridin-2-yl)benzoic acid (24 h) + 0.5 μM N-(2,4-di-tert-butyl-5-hydroxyphenyl)-4-oxo-1,4-dihydroquinoline-3-carboxamide; for EC50: test compound added 24 h before assay, potentiator (S)-3-amino-6-methoxy-N-(3,3,3-trifluoro-2-hydroxy-2-methylpropyl)-5-(trifluoromethyl)picolinamide present at assay, mean of at least two replicates, read-out: MTECC24 CFHBEC-EC50
T2 construct: functional activity of the CFTR channel (Chloride ion transport) in patient derived primary human bronchial epithelial cells; host or cells: patient-derived primary human bronchial epithelial cells (HBECs), delF508-CFTR
Method in brief: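 Patient-derived delF508 HBECs, grown at air-liquid interface about two weeks, were corrected with compound basolaterally for 24 h. Compound was then re-added apically and basolaterally in HEPES pH7.4 assay medium, with sequential modulators including forskolin and the picolinamide potentiator. Ieq was recorded, normalised to 0.1% DMSO wells, and EC50 fitted from 10-point curves.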

T1 sequence (P13569 with tags, fused parts or gaps DEL508-508): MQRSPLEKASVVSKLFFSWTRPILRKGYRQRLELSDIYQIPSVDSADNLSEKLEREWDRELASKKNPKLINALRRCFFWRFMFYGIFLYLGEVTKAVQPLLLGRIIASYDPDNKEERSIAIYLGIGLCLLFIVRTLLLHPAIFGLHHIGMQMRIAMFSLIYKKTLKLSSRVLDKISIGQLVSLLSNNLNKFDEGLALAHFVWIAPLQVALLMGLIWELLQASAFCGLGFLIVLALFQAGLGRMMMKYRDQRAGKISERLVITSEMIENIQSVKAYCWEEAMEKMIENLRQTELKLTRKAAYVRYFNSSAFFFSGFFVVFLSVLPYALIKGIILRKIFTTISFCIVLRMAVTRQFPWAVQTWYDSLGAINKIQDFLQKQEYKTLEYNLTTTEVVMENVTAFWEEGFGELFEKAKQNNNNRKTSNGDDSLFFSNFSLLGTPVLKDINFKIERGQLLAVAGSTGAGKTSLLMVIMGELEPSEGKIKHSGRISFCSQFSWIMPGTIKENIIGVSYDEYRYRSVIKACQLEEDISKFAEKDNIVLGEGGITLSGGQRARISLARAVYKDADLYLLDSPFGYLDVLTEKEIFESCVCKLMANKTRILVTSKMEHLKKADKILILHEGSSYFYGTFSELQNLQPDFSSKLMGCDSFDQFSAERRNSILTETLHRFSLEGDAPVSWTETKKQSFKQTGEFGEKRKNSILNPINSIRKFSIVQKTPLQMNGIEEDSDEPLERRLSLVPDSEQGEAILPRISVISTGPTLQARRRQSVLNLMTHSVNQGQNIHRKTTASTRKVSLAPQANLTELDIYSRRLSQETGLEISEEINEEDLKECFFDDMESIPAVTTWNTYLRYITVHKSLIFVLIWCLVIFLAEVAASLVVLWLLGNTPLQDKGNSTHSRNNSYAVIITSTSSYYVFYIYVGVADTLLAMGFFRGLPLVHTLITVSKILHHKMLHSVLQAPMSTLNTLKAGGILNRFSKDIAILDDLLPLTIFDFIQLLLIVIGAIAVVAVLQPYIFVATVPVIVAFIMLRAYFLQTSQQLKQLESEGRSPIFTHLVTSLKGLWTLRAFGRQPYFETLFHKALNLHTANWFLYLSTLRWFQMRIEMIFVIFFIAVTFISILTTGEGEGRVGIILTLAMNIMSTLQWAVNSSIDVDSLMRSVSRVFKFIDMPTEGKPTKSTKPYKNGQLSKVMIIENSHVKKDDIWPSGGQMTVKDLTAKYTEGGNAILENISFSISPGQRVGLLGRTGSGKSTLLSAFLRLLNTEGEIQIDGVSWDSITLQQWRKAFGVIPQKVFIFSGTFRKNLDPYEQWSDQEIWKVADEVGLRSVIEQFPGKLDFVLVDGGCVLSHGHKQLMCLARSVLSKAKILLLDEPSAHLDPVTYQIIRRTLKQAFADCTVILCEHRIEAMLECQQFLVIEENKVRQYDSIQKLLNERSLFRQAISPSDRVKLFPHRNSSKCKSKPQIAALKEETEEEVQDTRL
T2 sequence (P13569 with tags, fused parts or gaps DEL508-508): as above

Emax [1] [%]	EC50 [1] [µM]	MTECC24 CFHBEC-Amax % [2] [%]	EC50 [2] [µM]	DelF508-CFTR-HRP Amax % [1] [%]	SMILES
590	2.81	82	0.01		Cc1ccc(C2CCCC2)c(OC2(C(=O)NS(=O)(=O)c3cccc(NC[C@H](C)O)n3)CC2)c1 [Example 4-5, (S)-1-(2-Cyclopentyl-5-methylphenoxy)-N-((6-((2-hydroxypropyl)amino)pyridin-2-yl)sulfonyl)cyclopropane-1-carboxamide]
327	1.81	56	0.003		Cc1ccc(C2CCCCC2)c(OC2(C(=O)NS(=O)(=O)c3cccc(N4CCC(C)(NC(=O)C5CC5)CC4)n3)CC2)c1 [Example 2-10, 1-(2-Cyclohexyl-5-methylphenoxy)-N-((6-(4-(cyclopropanecarboxamido)-4-methylpiperidin-1-yl)pyridin-2-yl)sulfonyl)cyclopropanecarboxamide]
	0.92	148.8	0.394	920.6	Cc1ccc(C2CCC(C)(C)OC2)c(OC2(C(=O)NS(=O)(=O)c3cccc(N4CCC(O)(c5ccc(Cl)cc5)CC4)n3)CC2)c1 (single isomer, unassigned) [Example 11-1-1, N-((6-(4-(4-chlorophenyl)-4-hydroxypiperidin-1-yl)pyridin-2-yl)sulfonyl)-1-(2-(6,6-dimethyltetrahydro-2H-pyran-3-yl)-5-methylphenoxy)cyclopropane-1-carboxamide]
120	3.98	66	0.256		Cc1ccc(C2CCCCC2)c(OC2(C(=O)NS(=O)(=O)c3cccc(N4C[C@@H]5C[C@@H]5[C@H](N)C4)n3)CC2)c1 (relative stereo) [Example 2-44, N-((6-(5-cis-amino-3-azabicyclo[4.1.0]heptan-3-yl)pyridin-2-yl)sulfonyl)-1-(2-cyclohexyl-5-methylphenoxy)cyclopropane-1-carboxamide]
641	2.17	135.8	0.389		O=C(NS(=O)(=O)c1cccc(N2CC[C@H](O)C2)n1)C1(Oc2cc(Cl)ccc2N2CC3CCCC3C2)CC1 (stereo partly drawn) [Example 9-24, 1-(5-Chloro-2-(hexahydrocyclopenta[c]pyrrol-2(1H)-yl)phenoxy)-N-((6-((S)-3-hydroxypyrrolidin-1-yl)pyridin-2-yl)sulfonyl)cyclopropanecarboxamide]
717	2.63	103.3	0.482		Cc1ccc(N2CCC(C)(C)CC2)c(OC2(C(=O)NS(=O)(=O)c3cccc(N4CC[C@H](O)C4)n3)CC2)c1 [Example 10-4, (S)-1-(2-(4,4-dimethylpiperidin-1-yl)-5-methylphenoxy)-N-((6-(3-hydroxypyrrolidin-1-yl)pyridin-2-yl)sulfonyl)cyclopropanecarboxamide]
292	4.16	138	0.167		Cc1ccc([C@H]2CC[C@@H](F)CC2)c(OC2(C(=O)NS(=O)(=O)c3cccc(N4CC(C)(O)C4)n3)CC2)c1 (single isomer, unassigned) [Example 4-23, 1-(2-(Cis-4-fluorocyclohexyl)-5-methylphenoxy)-N-((6-(3-hydroxy-3-methylazetidin-1-yl)pyridin-2-yl)sulfonyl)cyclopropane-1-carboxamide]
253	2.57	121	0.103		Cc1ccc(C2CCCCC2)c(OC2(C(=O)NS(=O)(=O)c3cccc(N4CCC(C)(N)CC4)n3)CC2)c1 [Example 2-9, N-((6-(4-Amino-4-methylpiperidin-1-yl)pyridin-2-yl)sulfonyl)-1-(2-cyclohexyl-5-methylphenoxy)cyclopropanecarboxamide]
588	1.35	93.9	0.138		CC1(C)CCN(c2ccc(Cl)cc2OC2(C(=O)NS(=O)(=O)c3cccc(N4CCC(C)(O)CC4)n3)CC2)CC1 [Example 9-42, 1-(5-Chloro-2-(4,4-dimethylpiperidin-1-yl)phenoxy)-N-((6-(4-hydroxy-4-methylpiperidin-1-yl)pyridin-2-yl)sulfonyl)cyclopropane-1-carboxamide]
319	2.78	75	0.031		Cc1ccc(C2CCCCC2)c(OC2(C(=O)NS(=O)(=O)c3cccc(N4CCC(C)(C(N)=O)CC4)n3)CC2)c1 [Example 2-14, 1-(6-(N-(1-(2-cyclohexyl-5-methylphenoxy)cyclopropanecarbonyl)sulfamoyl)pyridin-2-yl)-4-methylpiperidine-4-carboxamide]
213	3.02	66	0.007		Cc1ccc(C2CCCCC2)c(OC2(C(=O)NS(=O)(=O)c3cccc(N4CCC(C)(C(=O)O)CC4)n3)CC2)c1 [Example 2-5, 1-(6-(N-(1-(2-cyclohexyl-5-methylphenoxy)cyclopropanecarbonyl)sulfamoyl)pyridin-2-yl)-4-methylpiperidine-4-carboxylic acid]
638	1.04	128.4	0.171		O=C(NS(=O)(=O)c1cccc(N2CC[C@H](O)C2)n1)C1(Oc2cc(Cl)ccc2N2CCC3(CCCC3)CC2)CC1 [Example 9-13, (S)-1-(5-Chloro-2-(8-azaspiro[4.5]decan-8-yl)phenoxy)-N-((6-(3-hydroxypyrrolidin-1-yl)pyridin-2-yl)sulfonyl)cyclopropanecarboxamide]
314	2.18	138	0.156		Cc1ccc(C2CCC(F)(F)C2)c(OC2(C(=O)NS(=O)(=O)c3cccc(N4CCC[C@@H](CO)C4)n3)CC2)c1 (single isomer, unassigned) [Example 4-7]
318	3.85	87	0.092		Cc1ccc(C2CCC(F)(F)CC2)c(OC2(C(=O)NS(=O)(=O)c3cccc(NC[C@@H](C)O)n3)CC2)c1 [Example 3-4, (R)-1-(2-(4,4-Difluorocyclohexyl)-5-methylphenoxy)-N-((6-((2-hydroxypropyl)amino)pyridin-2-yl)sulfonyl)cyclopropane-1-carboxamide]
477	3.46	70	0.023		Cc1ccc(CC(C)C)c(OC2(C(=O)NS(=O)(=O)c3cccc(NC[C@H](C)O)n3)CC2)c1 [Example 4-9, (S)-N-((6-((2-Hydroxypropyl)amino)pyridin-2-yl)sulfonyl)-1-(2-isobutyl-5-methylphenoxy)cyclopropane-1-carboxamide]
442	0.86	120.7	0.166		CN(C)c1cccc(S(=O)(=O)NC(=O)C2(Oc3cc(Cl)ccc3C3CC4(CCC4)C3)CC2)n1 [Example 7-15, 1-(5-Chloro-2-(spiro[3.3]heptan-2-yl)phenoxy)-N-((6-(dimethylamino)pyridin-2-yl)sulfonyl)cyclopropane-1-carboxamide]
363	3.97	64	0.052		Cc1ccc(C2CCC(F)(F)CC2)c(OC2(C(=O)NS(=O)(=O)c3cccc(N[C@H](C)CO)n3)CC2)c1 [Example 3-5]
462	2.07	110.6	0.668		Cc1ccc(OC2CCCCCC2)c(OC2(C(=O)NS(=O)(=O)c3cccc(N4CC[C@H](O)C4)n3)CC2)c1 [Example 6-6, (S)-1-(2-(cycloheptyloxy)-5-methylphenoxy)-N-((6-(3-hydroxypyrrolidin-1-yl)pyridin-2-yl)sulfonyl)cyclopropanecarboxamide]
668	2.36	97	0.005		Cc1ccc(C2CCCCC2)c(OC2(C(=O)NS(=O)(=O)c3cccc(N4CC(O)C4)n3)CC2)c1 [Example 2-1, 1-(2-Cyclohexyl-5-methylphenoxy)-N-((6-(3-hydroxyazetidin-1-yl)pyridin-2-yl)sulfonyl)cyclopropanecarboxamide]
674	2.24	90	0.017		Cc1ccc(C2CCCCC2)c(OC2(C(=O)NS(=O)(=O)c3cccc(N4CCC(CO)(NC(=O)OC(C)(C)C)CC4)n3)CC2)c1 [Example 2-22, Tert-butyl (1-(6-(N-(1-(2-cyclohexyl-5-methylphenoxy)cyclopropanecarbonyl)sulfamoyl)pyridin-2-yl)-4-(hydroxymethyl)piperidin-4-yl)carbamates]
503	1.95	88	0.016		Cc1ccc(-c2cccc(C(F)(F)F)c2)c(OC2(C(=O)NS(=O)(=O)c3cccc(N4CC[C@H](O)C4)n3)CC2)c1 [Example 5-1, (S)-N-((6-(3-Hydroxypyrrolidin-1-yl)pyridin-2-yl)sulfonyl)-1-((4-methyl-3′-(trifluoromethyl)-[1,1′-biphenyl]-2-yl)oxy)cyclopropane-1-carboxamide]
